From patent publication US20030134303A1, “Adenine nucleotide-binding protein-directed probes, and methods of their synthesis and use” (ActivX Biosciences, Inc,, priority 2001, published 2003)

Legend:
Format in all cases: binding
[1] = target: EGF receptor tyrosine kinase (Homo sapiens, UniProt P00533); experiment: Effect of inhibitors on EGF receptor tyrosine kinase labeling by ANBP (5) in A431 plasma membranes; conditions: inhibitor 50 μM, 5 minutes pretreatment, then AX0231 20 μM for 60 minutes; compared with 90% by the EGF inhibitor at 5 μM
Procedure: After 60 minutes, the reaction was quenched by the addition of gel sample buffer. The samples were electrophoresed on a 10% SDS-PAGE gel. The gel was then scanned on a FMBIO2 gel scanner, and the intensity of labeling of the EGFR was quantitated by ImageAnalysis.

[2] = target: T1, GST-fusion protein of the insulin receptor kinase domain (GST-InsRK) (Homo sapiens, UniProt P06213)
T1 construct: GST-fusion protein of the insulin receptor kinase domain (GST-InsRK)

[3] = target: T2, epidermal growth factor receptor (EGFR) (Homo sapiens, UniProt P00533); experiment: EGF receptor tyrosine kinase labeling in A431 plasma membranes, MS identification of labeled peptide; conditions: probe 20 μM, 3 hours, solubilized A431 plasma membranes, anti-TAMRA capture, trypsin
T2 construct: Plasma membranes containing the epidermal growth factor receptor (EGFR) were prepared from the A431 human epidermoid cancer cell line; endogenous in cells; host or cells: A431 human epidermoid cancer cells (plasma membrane preparation, Triton X-100 solubilized)
Procedure: Plasma membranes containing the epidermal growth factor receptor (EGFR) were prepared from the A431 human epidermoid cancer cell line. Approximately 1×10^8 A431 cells were resuspended in 10 mls 20 mM HEPES, pH 7.5, 0.14M NaCl, 5 mM KCl, 0.1 mM EDTA, 0.1% glucose, and 0.035% sodium bicarbonate. The cells were lysed by Dounce homogenization, and the lysate was diluted into 80 mls of 20 mM sodium borate, pH 10.2, 0.1 mM EDTA. This mixture was placed on a rocker at 4° C. for 10 minutes, and the membranes from the mixture were isolated by centrifugation at 16,000 rpm for 30 minutes in a Beckman JA17 rotor. The plasma membranes were further purified by centrifugation over a 40%/30% sucrose cushion at 30000 rpm for 60 minutes in a Beckman MLS 50 swinging bucket rotor. The plasma membranes were collected at the aqueous—sucrose interface, and solubilized in buffer containing 20 mM HEPES, pH 7.5, 50 mM NaCl, 20 mM MgCl2, 0.05 mg/ml BSA, and 0.1% Triton-X-100.
Solubilized A431 plasma membranes (˜0.5 mg total protein) were incubated with (5)(20 μM) for 3 hours. […]
The proteins in this band were trypsinized, and the tryptic peptides were extracted. […] After elution from the beads the captured fragment was analyzed by mass spectroscopy (MS) to identify the peptide sequence: […]

T1 sequence (P06213 1023-1298 limits assumed): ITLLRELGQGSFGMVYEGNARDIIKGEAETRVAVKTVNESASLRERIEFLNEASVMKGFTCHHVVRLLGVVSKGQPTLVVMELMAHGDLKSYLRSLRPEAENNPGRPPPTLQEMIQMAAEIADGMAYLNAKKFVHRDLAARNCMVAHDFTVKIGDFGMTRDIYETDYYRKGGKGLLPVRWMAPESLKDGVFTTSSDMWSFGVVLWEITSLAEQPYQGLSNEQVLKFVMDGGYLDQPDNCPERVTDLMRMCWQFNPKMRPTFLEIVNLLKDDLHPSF

| Molecule | inhibition of probe labeling of EGFR [1] | labeling of GST-InsRK by probe [2] | site of labeling in EGFR (probe-labeled tryptic peptide, K*) [3] |
| --- | --- | --- | --- |
| COC(=O)c1ccc(NCc2cc(O)ccc2O)cc1 [AG957] | significantly less inhibition |  |  |
| 5′-FSB-amido-2′(3′)-(2-TAMRA-amidoethylcarbamoyl)adenosine [Compound 5] |  | labeled | located within the active site of the protein |
